This is an account of results in patent US20180113115A1, “SCREENING ASSAYS BASED ON MAG AND/OR ABHD6 FOR SELECTING INSULIN SECRETION PROMOTING AGENT” (VAL-CHUM, LIMITED PARTNERSHIP, priority 2010, published 2018).

One series has as its system TRPV1-R. The conditions noted are these: in vivo; cited from earlier work.
The subject of the next series is INS832/13 cells. The series can be described thus: RNAi-knockdown of ABHD6, insulin secretion. As to conditions: siRNA transfection; for glucose-stimulated insulin secretion: 10 mM glucose. It is filed as cell-based. On the procedure: INS 832/13 cells were plated at a density of 150 000 cells/well in a 12-well plate, in 1 ml complete RPMI medium, one day prior to RNAi transfection. On the next day, RNAi duplexes and lipofectamine-RNAimax™ were prepared separately. Then 24 pmol of each RNAi duplex was diluted in 100 μl Opti-MEM™ without serum and mixed gently. And at the same time, 2 μl of lipofectamine-RNAimax was diluted in 100 μl Opti-MEM without serum and mixed gently. Then the diluted RNAi duplex and RNAi-max reagents were mixed gently (200 μl volume) and incubated at room temperature for 20 min. This 200 μl mixture (which gives a final concentration of […] of RNAi), prepared separately for each well, was then added to the corresponding well with approximately 30% confluent INS cells. Following RNAi transfection, cells were incubated for 16 to 72 h. in a CO2 incubator at 37° C. Then the cells were starved by incubation in RPMI-1640 with 10% FBS and 1 mM glucose for 2 h. followed by washing one time with KRBH (containing 1 mM glucose and 0.5% BSA) and pre-incubation with the same KRBH for 45 min. Finally for following insulin secretion, cells were incubated in the KRBH buffer with 1 mM or 10 mM glucose for 2 h. The media and the cells were collected for insulin and protein assay as described above. The ABHD6-directed siRNAs and the control siRNAs were obtained from Ambion (Catalog #4390771; […]tt (ABHD6-6 sense or SEQ ID NO: 9), […]gt (ABHD6-6 anti-sense or SEQ ID NO: 10), […]tt (ABHD6-5 sense or SEQ ID NO: 11), […]at (ABHD6-5 anti-sense or SEQ ID NO: 12)). ABHD6-6 sense and antisense oligos are used in a similar fashion. Control siRNAs, which are non-targeting siRNAs with limited sequence similarity to known genes were obtained from Ambion (Catalog #AM4613 and AM4642) and were used to transfect the cells as described above. Additionally, non-treated cells and pBS (plasmid vector Bluescript) transfected cells were used as controls as well. Results of insulin secretion and ABHD6 expression in ABHD6-siRNA transfected cells were compared with different controls.

Series [1] relates to INS 832/13 cells. The series can be described thus: Insulin secretion measurement in INS 832/13 cells (static incubation). It counts as cell-based. On the procedure: (§1) INS 832/13 cells (Hohmeir et al.) were cultured at 37° C. in a humidified atmosphere containing 5% CO2 in RPMI 1640 with sodium bicarbonate, supplemented with 10% (v/v) fetal calf serum (Wisent), 10 mM HEPES, pH 7.4, 2 mM L-glutamine, 1 mM sodium pyruvate and 50 μM β-mercaptoethanol (complete RPMI). Cells were grown to 80% confluence. Media were changed to RPMI 1640 containing 3 mM glucose supplemented as the complete RPMI 24 h prior to the experiments. Insulin secretion incubations were conducted in Krebs-Ringer bicarbonate buffer containing 10 mM HEPES, pH 7.4 (KRBH).
INS 832/13 cells were washed in KRBH containing 1 mM glucose and 0.5% defatted BSA (KRBH 1G/0.5% BSA) and pre-incubated for 45 min in KRBH 1G/0.5% BSA in presence of pharmacological agents (at indicated concentrations) or vehicle (DMSO). […] When examining the effect of 2-AG, it was added to cells at 0 to 1 μM concentration at 2 mM and 10 mM glucose. Insulin secretion from INS 832/13 cells was measured from either 45-min or 2-h static incubations in KRBH containing various glucose concentrations, 0.5% defatted BSA and pharmacological agents or vehicle, with or without 35 mM KCl or 0.3 mM palmitate, as specified.

In series [2] the test system is INS 832/13 cells. The series can be described thus: Effect of lipase inhibitors on [U-14C]-glucose incorporation into lipids. It counts as cell-based. The conditions noted are these: 1 and 10 mM [U14C]-glucose, 50 μM orlistat. On the procedure:
as §1
INS 832/13 cells were incubated overnight at 11 mM [U-^14C]-glucose in RPMI medium in a CO2-incubator in order to pre-label all the lipids in the cells. Then the cells were washed in KRBH (1 mM [U-^14C]-glucose) and pre-incubated for 45 min in KRBH at 1 mM [U-^14C]-glucose to bring metabolism to basal level. After this, cells were further incubated for 2 h in KRBH at 1 and 10 mM [U-^14C]-glucose and the indicated inhibitors. […] Then the cells were washed rapidly and flash-frozen in liquid nitrogen and extracted for lipids. Lipids were separated by TLC and the associated radioactivity was quantified. Neutral lipids were separated on boric acid/silica gel-TLC, with two solvent systems, first petroleum ether: diethyl ether: acetic acid (70:30:1), followed by second solvent system up to half of the plates, chloroform: acetone: acetic acid (60:40:1). Phospholipids were separated with a solvent system, chloroform: methanol: water (65:25:4).

Another series has as its system MAG lipase (MAGL). The conditions noted are these: cited from earlier work.
For another series, the system named is rat intact islets. The series can be described thus: GSIS in isolated intact rat islets. It is filed as cell-based. As to conditions: 20 μM WWL70 + 20 μM AMG9810. The text has this: (§2) All procedures were approved by the Institutional Committee for the Protection of Animals at the Centre Hospitalier de l'Université de Montreal Research Center. Wistar rats or […] mice or CD1 mice (all male) from Charles River (St-Constant, QC, Canada) were anaesthetized with Somnotol® (MTC Pharmaceuticals, Canada) and sacrificed by exsanguination. Pancreatic islets were isolated by collagenase (type XI from Sigma) digestion of total pancreas (Gotoh et al.), followed by separation (centrifugation at 1040×g) on a Histopaque™ 1119, 1077 (Sigma) gradient. Isolated islets were handpicked and cultured overnight in a petri dish at 37° C. in a humidified atmosphere containing 5% CO2 in RPMI 1640 with sodium bicarbonate, supplemented with 10% fetal calf serum, 10 mM HEPES pH 7.4, 2 mM L-glutamine, 1 mM sodium pyruvate, 100 U/mL penicillin and 100 μg/mL streptomycin.
(§3) For insulin secretion from rat, mouse or human islets, batches of 10 islets were washed in KRBH containing 2.8 mM glucose and 0.5% defatted BSA, and pre-incubated for 45 min in KRBH containing 2.8 mM glucose, 0.5% defatted BSA and different pharmacological agents (at indicated concentrations) or DMSO. […] Total insulin contents and media insulin concentrations were determined by radioimmunoassay using human insulin standards (Linco Research, Mo.).

The subject of series [3] is dispersed rat islet cells. The series can be described thus: GSIS in dispersed rat islet cells. It is filed as cell-based. As to conditions: 20 μM WWL70, 20 μM AMG9810 or combination.
Text: as §2, with “streptomycin. […]” for “streptomycin.”
as §3

The subject of series [4] is isolated CD1 mouse islets. The series can be described thus: GSIS in isolated CD1 mouse islets. It is filed as cell-based.
Text: as §2
(§4) For insulin secretion from rat, mouse or human islets, batches of 10 islets were washed in KRBH containing 2.8 mM glucose and 0.5% defatted BSA, and pre-incubated for 45 min in KRBH containing 2.8 mM glucose, 0.5% defatted BSA and different pharmacological agents (at indicated concentrations) or DMSO. Islets were then incubated for either 45 min or 2 h in KRBH containing various glucose concentrations or 2.8 mM glucose plus 35 mM KCl, 0.5% defatted BSA in the presence or absence of drugs (at indicated concentrations) or vehicle (DMSO). At the end of the incubation, media were collected and insulin extracted from cells or islets in acid-ethanol (1.5% HCl, 75% ethanol). Total insulin contents and media insulin concentrations were determined by radioimmunoassay using human insulin standards (Linco Research, Mo.).

In series [5] the test system is isolated C57Bl6 mouse islets. The series can be described thus: GSIS in isolated C57Bl6 mouse islets. It is filed as cell-based.
Text: as §2, §4

For another series, the system named is human intact islets. The series can be described thus: GSIS in human intact islets. It is filed as cell-based. The conditions noted are these: one donor. On the procedure:
Human islets were obtained from the Human Islet Isolation Core of MDRC, following appropriate ethical guidelines. The donor was a […] without any known metabolic disease. Islets were hand-picked and cultured overnight before use. Both rodent and human islets were also treated with trypsin to disperse islet cells and then cultured overnight in RPMI complete medium. These overnight cultured dispersed islets cells were then used for examining the effect of various pharmacological agents.
as §4

The mark [6] stands for this setting: 20 μM WWL70 or 20 μM AMG9810 alone.
Setting [7] is: 20 μM AMG9810, with 20 μM WWL70.

As to `C=C(C)[C@]12C[C@@H](C)[C@@]34O[C@](Cc5ccccc5)(O[C@@H]1[C@@H]3C=C(COC(=O)Cc1ccc(O)c(OC)c1)C[C@]1(O)C(=O)C(C)=C[C@@H]41)O2` [resiniferatoxin], in the series with TRPV1-R, the plasma insulin levels entry is “elevates plasma insulin levels”.

As for “ABHD6-siRNA6: annealed ABHD6-6 sense (SEQ ID NO: 9) and anti-sense (SEQ ID NO: 10) oligos, ABHD6-directed siRNA from Ambion (sense CGGAAAUUGUUUUUGGAAATT; antisense UUUCCAAAAACAAUUUCCGGT; chemistry not given here)”, the glucose-stimulated insulin secretion entry with INS832/13 cells is reported as “significantly elevated”.

Consider `O=C(Oc1ccc([N+](=O)[O-])cc1)N1CCC(C(O)(c2ccc3c(c2)OCO3)c2ccc3c(c2)OCO3)CC1` [JZL184], for which the “glucose-stimulated insulin secretion (GSIS)” value in the series with INS 832/13 cells [1] (increasing glucose (5 and 10 mM), 10 μM WWL70, 50 μM orlistat, 1 μM JZL184) is “no effect”. The “release of [U14C]-free fatty acids (FFA)” value in the series on INS 832/13 cells [2] (1 μM JZL184) is listed as “no effect”. In addition, in the series on INS 832/13 cells [2] (10 μM WWL70, 1 μM JZL184), the “glucose incorporation into 1-monoacylglycerol (1-MAG)” value is recorded as “elevated”, the “glucose incorporation into 2-monoacylglycerol (2-MAG)” value is reported as “elevated”, the “glucose incorporation into diacylglycerol (DAG)” value was “no effect” and the “glucose incorporation into triglycerides (TG)” value is “no effect”. For the same compound, the “effect on MAG lipase (MAGL)” value in the series with MAG lipase (MAGL) was “specifically inhibits MAGL”.

Regarding `CC(C)(C)c1ccc(/C=C/C(=O)Nc2ccc3c(c2)OCCO3)cc1` [AMG9810], the “WWL70-enhanced GSIS” value is listed as “completely antagonized the WWL70 stimulation” with INS 832/13 cells [1] (10 μM WWL70, AMG9810 at 10 μM, 1, 5, 10 mM glucose); “antagonized” in the series on rat intact islets; “antagonized” in series [4] (20 μM WWL70 + 20 μM AMG9810). Also, in the series on INS 832/13 cells [1] (35 mM KCl, 1 mM glucose, 10 μM WWL70 or 10 μM AMG9810), the KCl-stimulated insulin secretion result is “Neither WWL70 nor AMG9810 had any effect”. The “GSIS, AMG9810 alone” value in the series on INS 832/13 cells [1] (1, 5, 10 mM glucose, AMG9810 concentration series) was “dose-dependently reduces GSIS”. Moreover, the “insulin secretion stimulated by leucine+glutamine” value in the series on INS 832/13 cells [1] (Gln+Leu 5 mM each, 1 mM glucose, 10 μM WWL70 or 10 μM AMG9810) is reported as “inhibited”. Further, the GSIS result in [3] is given as “inhibition of GSIS”; in series [4] (setting [6]), “without significant effect on GSIS per se”; in series [5] (20 μM WWL70 or 20 μM AMG9810 alone, 2.8 and 11.1 mM glucose), “without significant effect on GSIS per se”; with human intact islets (setting [6]), “without significant effect on GSIS per se”. For the same compound, the “GSIS inhibition by AMG9810 (WWL70-augmented)” value (in series [5] (setting [7]); in the series on human intact islets (setting [7])) was “inhibition of GSIS” throughout.

Turning to “ABHD6-siRNA5: annealed ABHD6-5 sense (SEQ ID NO: 11) and anti-sense (SEQ ID NO: 12) oligos, ABHD6-directed siRNA from Ambion (sense CAGUUUGUAGAAUGCCUUATT; antisense UAAGGCAUUCUACAAACUGAT; chemistry not given here)”, the basal insulin secretion entry in the series with INS832/13 cells (1 mM glucose) is “increased”. In the series on INS832/13 cells, the glucose-stimulated insulin secretion entry is “significantly elevated”.
